# Several values for one entry are separate records, joined by “and”; a condition that tells them apart may be missing. Equal entries are not always repeated.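 Growth conditions: 96-well plates. Treatment: test compound, 48 hours, 5 concentrations. Analysis: linear interpolation between bracketing concentrations; unreached endpoints set to highest concentration. GI50 is the concentration that inhibits growth by half. At the TGI there is no net growth.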
# Assays:
# Test in all cases: growth of human tumour cells (NCI), 48 h
# M14 melanoma = system: M14 melanoma
# TK-10 renal = system: TK-10 renal
# UO-31 renal = system: UO-31 renal
# NCI-H23 lung = system: NCI-H23 lung
# HCC-2998 colon = system: HCC-2998 colon
# HT29 colon = system: HT29 colon
# UACC-62 melanoma = system: UACC-62 melanoma
# HOP-62 NSCLC = system: HOP-62 NSCLC
# SW-620 colon = system: SW-620 colon
# SK-MEL-2 melanoma = system: SK-MEL-2 melanoma
# ACHN renal = system: ACHN renal
# DU-145 prostate = system: DU-145 prostate
# IGROV1 ovarian = system: IGROV1 ovarian
# 786-0 renal = system: 786-0 renal
# U251 CNS = system: U251 CNS
# A498 renal = system: A498 renal
# OVCAR-3 ovarian = system: OVCAR-3 ovarian
# MDA-MB-435 = system: MDA-MB-435
# MDA-MB-231 breast = system: MDA-MB-231 breast
# A549 NSCLC = system: A549 NSCLC
# NCI-H226 lung = system: NCI-H226 lung
# SF-295 CNS = system: SF-295 CNS
# HL-60(TB) leukemia = system: HL-60(TB) leukemia
# RXF 393 renal = system: RXF 393 renal
# NCI-H460 lung = system: NCI-H460 lung
# KM12 colon = system: KM12 colon
# SR leukemia = system: SR leukemia
# HS 578T breast = system: HS 578T breast
# NCI/ADR-RES ovarian = system: NCI/ADR-RES ovarian
# OVCAR-5 ovarian = system: OVCAR-5 ovarian
# MALME-3M melanoma = system: MALME-3M melanoma
# HCT-15 colon = system: HCT-15 colon
# MOLT-4 leukemia = system: MOLT-4 leukemia
# SK-OV-3 ovarian = system: SK-OV-3 ovarian
# PC-3 prostate = system: PC-3 prostate
# BT-549 breast = system: BT-549 breast
# SK-MEL-28 melanoma = system: SK-MEL-28 melanoma
# MCF7 breast = system: MCF7 breast
# SF-539 CNS = system: SF-539 CNS
# HCT-116 colon = system: HCT-116 colon
# OVCAR-8 ovarian = system: OVCAR-8 ovarian
# CCRF-CEM leukemia = system: CCRF-CEM leukemia
# T-47D breast = system: T-47D breast
# SN12C renal = system: SN12C renal
# K-562 leukemia = system: K-562 leukemia
# SF-268 CNS = system: SF-268 CNS
# EKVX NSCLC = system: EKVX NSCLC
# SNB-19 CNS = system: SNB-19 CNS
# SK-MEL-5 melanoma = system: SK-MEL-5 melanoma
# LOX IMVI melanoma = system: LOX IMVI melanoma
# CAKI-1 renal = system: CAKI-1 renal
# HOP-92 NSCLC = system: HOP-92 NSCLC
# RPMI-8226 leukemia = system: RPMI-8226 leukemia
# COLO 205 colon = system: COLO 205 colon
# NCI-H522 lung = system: NCI-H522 lung
# SNB-75 CNS = system: SNB-75 CNS
# OVCAR-4 ovarian = system: OVCAR-4 ovarian
# UACC-257 melanoma = system: UACC-257 melanoma
structure (smiles),measurement,setting,value
CC1(C)C2CC(=O)C1(C)C(OCc1ccccc1)C2Br (configuration not stated),GI50,M14 melanoma,23.4 µM and 54.8 µM
same,TGI,M14 melanoma,57.9 µM and > 100 µM
same,TGI,TK-10 renal,> 100 µM
same,GI50,UO-31 renal,29.5 µM and 62 µM
same,TGI,UO-31 renal,75.1 µM and > 100 µM
same,TGI,NCI-H23 lung,76.3 µM and > 100 µM
same,GI50,HCC-2998 colon,27.7 µM and 98.6 µM
same,TGI,HCC-2998 colon,69.3 µM and > 100 µM
same,TGI,HT29 colon,32.2 µM and 71.3 µM
same,TGI,UACC-62 melanoma,> 100 µM
same,GI50,HOP-62 NSCLC,16.3 µM and 54.3 µM
same,TGI,HOP-62 NSCLC,33.9 µM and > 100 µM
same,TGI,SW-620 colon,47 µM and > 100 µM
same,GI50,SK-MEL-2 melanoma,13.1 µM and > 100 µM
same,TGI,SK-MEL-2 melanoma,25.8 µM and > 100 µM
same,GI50,ACHN renal,38.5 µM and 93.9 µM
same,TGI,ACHN renal,> 100 µM
same,GI50,DU-145 prostate,29.7 µM and 86.8 µM
same,TGI,DU-145 prostate,> 100 µM
same,TGI,IGROV1 ovarian,> 100 µM
same,GI50,786-0 renal,46.5 µM and > 100 µM
same,TGI,786-0 renal,> 100 µM
same,GI50,U251 CNS,22.4 µM and 51.7 µM
same,TGI,U251 CNS,44.6 µM and > 100 µM
same,GI50,A498 renal,24.8 µM and > 100 µM
same,TGI,A498 renal,62.2 µM and > 100 µM
same,GI50,OVCAR-3 ovarian,19.3 µM and 53.4 µM
same,TGI,OVCAR-3 ovarian,37.1 µM and > 100 µM
same,TGI,MDA-MB-435,> 100 µM and 84.7 µM
same,GI50,MDA-MB-231 breast,18.5 µM and > 100 µM
same,TGI,MDA-MB-231 breast,42.9 µM and > 100 µM
same,TGI,A549 NSCLC,> 100 µM
same,GI50,NCI-H226 lung,23.2 µM and > 100 µM
same,TGI,NCI-H226 lung,56.1 µM and > 100 µM
same,TGI,SF-295 CNS,70.9 µM and > 100 µM
same,TGI,HL-60(TB) leukemia,50.2 µM and 62.1 µM
same,GI50,RXF 393 renal,20.6 µM and 82.7 µM
same,TGI,RXF 393 renal,46.8 µM and > 100 µM
same,GI50,NCI-H460 lung,20.2 µM and 48.5 µM
same,TGI,NCI-H460 lung,43.5 µM and > 100 µM
same,GI50,KM12 colon,31.4 µM and 63 µM
same,TGI,KM12 colon,> 100 µM
same,TGI,SR leukemia,52.8 µM and 66.1 µM
same,GI50,HS 578T breast,13.4 µM
same,TGI,HS 578T breast,68.2 µM and 58.8 µM
same,TGI,NCI/ADR-RES ovarian,42.1 µM and > 100 µM
same,GI50,OVCAR-5 ovarian,32.2 µM and > 100 µM
same,TGI,OVCAR-5 ovarian,> 100 µM
same,GI50,MALME-3M melanoma,19.1 µM and 48.6 µM
same,TGI,MALME-3M melanoma,36.9 µM and > 100 µM
same,TGI,HCT-15 colon,31.1 µM and > 100 µM
same,TGI,MOLT-4 leukemia,51.2 µM and 49.9 µM
same,GI50,SK-OV-3 ovarian,41.5 µM and > 100 µM
same,TGI,SK-OV-3 ovarian,> 100 µM
same,TGI,PC-3 prostate,47.8 µM and > 100 µM
same,GI50,BT-549 breast,26.6 µM and 54.3 µM
same,TGI,BT-549 breast,67.4 µM and > 100 µM
same,GI50,SK-MEL-28 melanoma,15.1 µM and > 100 µM
same,TGI,SK-MEL-28 melanoma,> 100 µM
same,TGI,MCF7 breast,> 100 µM
same,GI50,SF-539 CNS,25.9 µM and > 100 µM
same,TGI,SF-539 CNS,68.4 µM and > 100 µM
same,TGI,HCT-116 colon,39.8 µM and > 100 µM
same,GI50,OVCAR-8 ovarian,22.7 µM and 95.7 µM
same,TGI,OVCAR-8 ovarian,56.8 µM and > 100 µM
same,TGI,CCRF-CEM leukemia,49.1 µM and 56.1 µM
same,TGI,T-47D breast,77.9 µM and > 100 µM
same,GI50,SN12C renal,24.2 µM and 82.1 µM
same,TGI,SN12C renal,52.9 µM and > 100 µM
same,TGI,K-562 leukemia,> 100 µM
same,TGI,SF-268 CNS,> 100 µM
same,TGI,EKVX NSCLC,> 100 µM
same,GI50,SNB-19 CNS,47.2 µM and > 100 µM
same,TGI,SNB-19 CNS,> 100 µM
same,TGI,SK-MEL-5 melanoma,29.3 µM and > 100 µM
Clc1ccc(Cc2nc3cc4ccccc4cc3[nH]2)cc1Cl,TGI,M14 melanoma,75.3 µM
same,TGI,LOX IMVI melanoma,60.8 µM
same,TGI,CAKI-1 renal,43.5 µM
same,TGI,TK-10 renal,39.8 µM
same,TGI,UO-31 renal,28.5 µM
same,TGI,NCI-H23 lung,71.6 µM
same,TGI,HCC-2998 colon,40.4 µM
same,TGI,HOP-92 NSCLC,30.6 µM
same,TGI,RPMI-8226 leukemia,> 100 µM
same,TGI,HT29 colon,28.5 µM
same,TGI,UACC-62 melanoma,34.2 µM
same,TGI,HOP-62 NSCLC,82.9 µM
same,TGI,SW-620 colon,41.3 µM
same,TGI,SK-MEL-2 melanoma,34.4 µM
same,TGI,ACHN renal,81.2 µM
same,TGI,DU-145 prostate,45.7 µM
same,TGI,IGROV1 ovarian,16.7 µM
same,TGI,786-0 renal,> 100 µM
same,TGI,COLO 205 colon,> 100 µM
same,TGI,U251 CNS,78.3 µM
same,TGI,A498 renal,27.7 µM
same,TGI,OVCAR-3 ovarian,61 µM
same,TGI,MDA-MB-435,49.3 µM
same,TGI,MDA-MB-231 breast,38 µM
same,TGI,A549 NSCLC,68.9 µM
same,TGI,NCI-H226 lung,78 µM
same,TGI,HL-60(TB) leukemia,59.2 µM
same,TGI,NCI-H522 lung,29 µM
same,TGI,RXF 393 renal,40.2 µM
same,TGI,NCI-H460 lung,> 100 µM
same,TGI,KM12 colon,45.9 µM
same,TGI,SR leukemia,30.8 µM
same,TGI,HS 578T breast,64.5 µM
same,TGI,NCI/ADR-RES ovarian,96.4 µM
same,TGI,OVCAR-5 ovarian,> 100 µM
same,TGI,MALME-3M melanoma,39.4 µM
same,TGI,HCT-15 colon,> 100 µM
same,TGI,MOLT-4 leukemia,4.03 µM
same,TGI,SNB-75 CNS,44.5 µM
same,TGI,PC-3 prostate,43.4 µM
same,TGI,BT-549 breast,37.2 µM
same,TGI,SK-MEL-28 melanoma,29.4 µM
same,TGI,MCF7 breast,67.3 µM
same,TGI,SF-539 CNS,41.3 µM
same,TGI,OVCAR-4 ovarian,36.8 µM
same,TGI,HCT-116 colon,> 100 µM
same,TGI,OVCAR-8 ovarian,49.8 µM
same,TGI,CCRF-CEM leukemia,> 100 µM
same,TGI,T-47D breast,39.7 µM
same,TGI,SN12C renal,52.2 µM
same,TGI,K-562 leukemia,83 µM
same,TGI,UACC-257 melanoma,37.7 µM
same,TGI,SF-268 CNS,62.7 µM
same,TGI,EKVX NSCLC,78.2 µM
same,TGI,SNB-19 CNS,46 µM
same,TGI,SK-MEL-5 melanoma,20.4 µM
CCOC(=O)c1c(N2CCN(C)CC2)[nH]c(=O)c(C(c2c(Cl)cccc2Cl)c2c(O)c(C(=O)OCC)c(N3CCN(C)CC3)[nH]c2=O)c1O,TGI,M14 melanoma,68.9 µM
same,TGI,LOX IMVI melanoma,> 100 µM
same,TGI,CAKI-1 renal,52.7 µM
same,TGI,TK-10 renal,55.4 µM
same,TGI,UO-31 renal,39.1 µM
same,TGI,NCI-H23 lung,> 100 µM
same,TGI,HCC-2998 colon,78.1 µM
same,TGI,HOP-92 NSCLC,37.6 µM
same,TGI,RPMI-8226 leukemia,> 100 µM
same,TGI,HT29 colon,39.1 µM
same,TGI,UACC-62 melanoma,39.5 µM
same,TGI,HOP-62 NSCLC,> 100 µM
same,TGI,SW-620 colon,68.2 µM
same,TGI,SK-MEL-2 melanoma,53.2 µM
same,TGI,ACHN renal,42.8 µM
same,TGI,DU-145 prostate,38.3 µM
same,TGI,IGROV1 ovarian,39.2 µM
same,TGI,786-0 renal,87 µM
same,TGI,COLO 205 colon,> 100 µM
same,TGI,U251 CNS,50 µM
same,TGI,A498 renal,39.8 µM
same,TGI,OVCAR-3 ovarian,87.1 µM
same,TGI,MDA-MB-435,57.9 µM
same,TGI,MDA-MB-231 breast,55.1 µM
same,TGI,A549 NSCLC,71.4 µM
same,TGI,NCI-H226 lung,52.6 µM
same,TGI,SF-295 CNS,63.3 µM
same,TGI,HL-60(TB) leukemia,58.2 µM
same,TGI,NCI-H522 lung,42 µM
same,TGI,RXF 393 renal,38.8 µM
same,TGI,NCI-H460 lung,77 µM
same,TGI,KM12 colon,49.7 µM
same,TGI,SR leukemia,67.6 µM
same,TGI,HS 578T breast,75 µM
same,TGI,NCI/ADR-RES ovarian,> 100 µM
same,TGI,OVCAR-5 ovarian,> 100 µM
same,TGI,MALME-3M melanoma,41.5 µM
same,TGI,HCT-15 colon,97.7 µM
same,TGI,MOLT-4 leukemia,62.2 µM
same,TGI,PC-3 prostate,47.5 µM
same,TGI,BT-549 breast,40.8 µM
same,TGI,SK-MEL-28 melanoma,34.1 µM
same,TGI,MCF7 breast,> 100 µM
same,TGI,SF-539 CNS,39.5 µM
same,TGI,OVCAR-4 ovarian,38.4 µM
same,TGI,HCT-116 colon,> 100 µM
same,TGI,OVCAR-8 ovarian,45 µM
same,TGI,CCRF-CEM leukemia,> 100 µM
same,TGI,T-47D breast,45.8 µM
same,TGI,SN12C renal,48 µM
same,TGI,K-562 leukemia,86.8 µM
same,TGI,UACC-257 melanoma,38.9 µM
same,TGI,SF-268 CNS,56.5 µM
same,TGI,EKVX NSCLC,34.2 µM
same,TGI,SNB-19 CNS,37.2 µM
same,TGI,SK-MEL-5 melanoma,40.1 µM
